pEC50, pKi: −log10 of the molar value. Structures can show the parent of a compound that is named as a salt.
Tests used:
[1] = target: T1, human μ opioid receptor (Homo sapiens (Human), UniProt P35372); assay: Alternate functional activity ([35S]GTPγS binding) assay, SPA beads; type: biochemical; details: alternate assay: [35S]GTPγS 0.020 nM, CHO cell membranes with WGA PVT SPA beads
Method: The [^35S]GTPγS assay measures the functional properties of a compound by quantifying the level of G-protein activation following agonist binding in studies using stably transfected cells, and is considered to be a measure of the efficacy of a compound. Membranes from CHO (Chinese Hamster Ovary) cells that stably expressed one type of the cloned human opioid receptor human were used in the experiments. The assay buffer consisted of 50 mM Tris-HCl, pH 7.4, 3 mM MgCl2, 0.2 mM EGTA, 5 μM GDP, and 100 mM NaCl. CHO cell membranes stably expressing the human p opioid receptor were pre-incubated with scintillation proximity assay beads from PerkinElmer® (WGA PVT SPA) for 30 minutes, at 8 µg membrane and […] beads in a volume of 0.1 mL per reaction. In a final volume of 0.2 mL, 11 different concentrations of each test compound were incubated with the membrane-SPA bead mixture and a final concentration of 0.020 nM [35S]GTPγS for 1.5 hours with gentle shaking. Reactions were then incubated for 5 hours. Data are the mean EC50 values ±S.E.M. EC50 values (nM) for compounds 12, 16, 19, 20, 149, 151, 152, 157, 160, 161, 164-169, 172, 173, 180-197, and 199-207 are shown in Table 1.

[2] = target: μ-receptor (Homo sapiens (Human), UniProt P35372); assay: Receptor binding, competitive displacement of [3H]DAMGO; details: 0.25 nM [3H]DAMGO, CHO cell membrane protein, 60 min at 25° C.
How it was run: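 Ki derived via Cheng-Prusoff from IC50 (log-probit fit) of displacement of 0.25 nM [3H]DAMGO, 12 concentrations, from human μ-receptor in CHO cell membranes. Binding: 50 mM Tris-HCl pH 7.5, 25 °C, 60 min, 10 μM naloxone defining nonspecific, filter-bound radioactivity counted.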

[3] = target: T1, human μ opioid receptor; assay: Functional activity ([35S]GTPγS binding); type: biochemical; details: [35S]GTPγS 0.080 nM, CHO cell membranes, 60 min at 30° C., filtration
How it was run: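 Membranes from stably transfected CHO cells (7.5 μg) incubated with 12 test-compound concentrations and 0.080 nM [35S]GTPγS in 50 mM Tris-HCl pH 7.4, 3 mM MgCl2, 0.2 mM EGTA, 3 μM GDP, 100 mM NaCl, 60 min at 30° C. Nonspecific binding defined with 10 μM GTPγS; bound label collected by filtration and scintillation counting.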

Structure (SMILES) | pEC50 [1] | pKi [2] | pEC50 [3]
COC1(c2cc(C(N)=O)ccc2C)C2CCCC1CN(C)C2 (stereo not drawn) [Compound 172] | < 7.12 |  | 
CCOC1(c2cccc(C(N)=O)c2O)C2CCCC1CNC2 (stereo not drawn) [Compound 207] | < 7.12 |  | 
COC1(c2ccnc(C(N)=O)c2)C2CCCC1CN(C1CC3CCC(C1)O3)C2 (stereo not drawn) [Compound 204] | 7.12 to 8.00 |  | 
CCOC1(c2cc(Cl)cc(C(N)=O)c2)C2CCCC1CNC2 (stereo not drawn) [Compound 185] | < 7.12 |  | 
NC(=O)c1cccc(C2(OCC(F)(F)F)C3CCCC2CNC3)c1 (stereo not drawn) [Compound 184] | 7.12 to 8.00 |  | 
COC1(c2cccc(C(N)=O)c2)C2CCCC1CN(C[C@H]1C[C@H]3CC[C@@H](C1)O3)C2 (stereo partly drawn) [Compound 166] | > 8.00 |  | 
CCOC1(c2cc(C)cc(C(N)=O)c2)C2CCCC1CNC2 (stereo not drawn) [Compound 193] | < 7.12 |  | 
COC1(c2cccc(C(N)=O)c2)C2CCCC1CN(Cc1n[nH]c3cnccc13)C2 (stereo not drawn) [Compound 191] | 7.12 to 8.00 |  | 
COC1(c2cc(C(N)=O)ccc2F)C2CCCC1CN(C)C2 (stereo not drawn) [Compound 173] | 7.12 to 8.00 |  | 
COC1(c2cc(F)cc(C(N)=O)c2)C2CCCC1CNC2 (stereo not drawn) [Compound 181] | 7.12 to 8.00 |  | 
COC1(c2cccc(C(N)=O)c2)C2CCCC1CN([C@H](C)c1n[nH]c3cnccc13)C2 (stereo partly drawn) [Compound 189] | 7.12 to 8.00 |  | 
COC1(c2cccc(C(N)=O)c2)C2CCCC1CN(C1CC3CCC(C1)O3)C2 (stereo not drawn) [Compound 205] | > 8.00 |  | 
CCOC1(c2cc(F)cc(C(N)=O)c2)C2CCCC1CNC2 (stereo not drawn) [Compound 192] | 7.12 to 8.00 |  | 
COC1(c2ccnc(C(N)=O)c2)C2CCCC1CN(C[C@@H]1CCCCO1)C2 (stereo partly drawn) [Compound 169] | 7.12 to 8.00 |  | 
COC1(c2ccnc(C(N)=O)c2)C2CCCC1CN(C1(C)CCC1)C2 (stereo not drawn) [Compound 201] | 7.12 to 8.00 |  | 
COC1(c2cccc(C(N)=O)c2)C2CCCC1CN(C[C@@H]1C[C@H]3CC[C@@H](C1)O3)C2 (stereo partly drawn) [Compound 167] | > 8.00 |  | 
COC1(c2cc(C(N)=O)ccc2F)C2CCCC1CN(C)C2 (stereo not drawn) [Compound 194] | 7.12 to 8.00 |  | 
COC1(c2cccc(C(N)=O)c2)C2CCCC1CN(C1CCC(F)(F)CC1)C2 [Compound 9, 3-((1R,5S,9r)-3-(4,4-difluorocyclohexyl)-9-methoxy-3-azabicyclo[3.3.1]nonan-9-yl)benzamide hydrochloride] |  | > 9.00 | 7.12 to 8.00
COC1(c2cccc(C(N)=O)c2)C2CCCC1CN([C@H]1C[C@H]3C[C@H]3C1)C2 (stereo partly drawn) [Compound 11, 3-((1R,5S,9r)-3-(bicyclo[3.1.0]hexan-3-yl)-9-methoxy-3-azabicyclo[3.3.1]nonan-9-yl)benzamide hydrochloride] |  | > 9.00 | > 8.00
COC1(c2ccnc(C(N)=O)c2)C2CCCC1CN(C1CC3CCC(C1)O3)C2 [Compound 10, 4-((1R,5S,9R)-3-((1R,3r,5S)-8-oxabicyclo[3.2.1]octan-3-yl)-9-methoxy-3-azabicyclo[3.3.1]nonan-9-yl)picolinamide hydrochloride] |  | < 8.30 | < 7.12
COC1(c2ccc(C(N)=O)s2)C2CCCC1CN(CCN1CCCS1(=O)=O)C2 [Compound 97, 5-((1R,5S,9r)-3-(2-(1,1-dioxidoisothiazolidin-2-yl)ethyl)-9-methoxy-3-azabicyclo[3.3.1]nonan-9-yl)thiophene-2-carboxamide (S)-2-hydroxysuccinate] |  | > 9.00 | 7.12 to 8.00

Structure (SMILES) | pEC50 [1] | pKi [2] | pEC50 [3]
COC1(c2ccc(C(N)=O)s2)C2CCCC1CN(CCN1CCOC1=O)C2 [Compound 98, 5-((1R,5S,9r)-9-methoxy-3-(2-(2-oxooxazolidin-3-yl)ethyl)-3-azabicyclo[3.3.1]nonan-9-yl)thiophene-2-carboxamide (S)-2-hydroxysuccinate] |  | < 8.30 | 7.12 to 8.00
COC1(c2cccc(C(N)=O)c2)C2CCCC1CN(C1CC1)C2 [Compound 38, 3-((1R,5S,9r)-3-cyclopropyl-9-methoxy-3-azabicyclo[3.3.1]nonan-9-yl)benzamide hydrochloride] |  | > 9.00 | 7.12 to 8.00
COC1(c2ccnc(C(N)=O)c2)C2CCCC1CN([C@H]1C[C@@H]3[C@H](C1)C3(F)F)C2 (stereo partly drawn) [Compound 18, 4-((1R,5S,9R)-3-((1R,3r,5S)-6,6-difluorobicyclo[3.1.0]hexan-3-yl)-9-methoxy-3-azabicyclo[3.3.1]nonan-9-yl)picolinamide hydrochloride] |  | > 9.00 | > 8.00
COC1(c2cccc(C(N)=O)c2)C2CCCC1CN(CC1CCS(=O)(=O)CC1)C2 [Compound 1, 3-((1R,5S,9r)-3-((1,1-dioxidotetrahydro-2H-thiopyran-4-yl)methyl)-9-methoxy-3-azabicyclo[3.3.1]nonan-9-yl)benzamide hydrochloride] |  | 8.30 to 9.00 | < 7.12
COC1(c2ccnc(C(N)=O)c2)C2CCCC1CN(C1CCOC1)C2 [Compound 74, 4-((1R,5S,9r)-9-methoxy-3-(tetrahydrofuran-3-yl)-3-azabicyclo[3.3.1]nonan-9-yl)picolinamide hydrochloride] |  | 8.30 to 9.00 | 7.12 to 8.00
COC1(c2ccnc(C(N)=O)c2)C2CCCC1CN([C@H]1CCCOC1)C2 (stereo partly drawn) [Compound 132, 4-((1R,5S,9s)-9-methoxy-3-((S)-tetrahydro-2H-pyran-3-yl)-3-azabicyclo[3.3.1]nonan-9-yl)picolinamide hydrochloride] |  | 8.30 to 9.00 | < 7.12
COC1(c2cccc(C(N)=O)c2)C2CCCC1CN([C@@H](C)c1n[nH]c3cnccc13)C2 (stereo partly drawn) [Compound 190] | > 8.00 |  | 
COC1(c2ccnc(C(N)=O)c2)C2CCCC1CN(Cc1n[nH]c3ccccc13)C2 [Compound 142, 4-((1R,5S,9r)-3-((1H-indazol-3-yl)methyl)-9-methoxy-3-azabicyclo[3.3.1]nonan-9-yl)picolinamide hydrochloride] |  | > 9.00 | > 8.00
COC1(c2ccnc(C(N)=O)c2)C2CCCC1CN(CC(C)C)C2 [Compound 92, 4-((1R,5S,9r)-3-isobutyl-9-methoxy-3-azabicyclo[3.3.1]nonan-9-yl)picolinamide hydrochloride] |  | < 8.30 | < 7.12
COC1(c2ccnc(C(N)=O)c2)C2CCCC1CN(C1CC(c3ccccc3)C1)C2 [Compound 89, 4-((1R,5S,9R)-9-methoxy-3-((1s,3S)-3-phenylcyclobutyl)-3-azabicyclo[3.3.1]nonan-9-yl)picolinamide hydrochloride] |  | > 9.00 | > 8.00
COC1(c2ccnc(C(N)=O)c2)C2CCCC1CN(C[C@@H]1C[C@H]3CC[C@@H](C1)O3)C2 (stereo partly drawn) [Compound 165] | 7.12 to 8.00 |  | 
COC1(c2cccc(C(N)=O)c2)C2CCCC1CN(Cc1ccccc1)C2 [Compound 21, 3-((1R,5S,9r)-3-benzyl-9-methoxy-3-azabicyclo[3.3.1]nonan-9-yl)benzamide hydrochloride] |  | > 9.00 | > 8.00
COC1(c2cccc(C(N)=O)c2)C2CCCC1CN(C[C@@H]1C[C@@H]3C[C@@H]3C1)C2 (stereo partly drawn) [Compound 156, 3-((1R,5S,9R)-3-((1R,3r,5S)-bicyclo[3.1.0]hexan-3-ylmethyl)-9-methoxy-3-azabicyclo[3.3.1]nonan-9-yl)benzamide hydrochloride] |  | > 9.00 | > 8.00
COC1(c2ccnc(C(N)=O)c2)C2CCCC1CN([C@H](C)c1cnn[nH]1)C2 (stereo partly drawn) [Compound 206] | < 7.12 |  | 
COC1(c2ccnc(C(N)=O)c2)C2CCCC1CN(C(C)C)C2 [Compound 76, 4-((1R,5S,9r)-3-isopropyl-9-methoxy-3-azabicyclo[3.3.1]nonan-9-yl)picolinamide hydrochloride] |  | 8.30 to 9.00 | 7.12 to 8.00
COC1(c2ccnc(C(N)=O)c2)C2CCCC1CN(C[C@@H]1CCCO1)C2 (single isomer, unassigned) [Compound 135, hydrochloride] |  | 8.30 to 9.00 | 7.12 to 8.00
CCOC1(c2cc(C(N)=O)ccc2F)C2CCCC1CNC2 (stereo not drawn) [Compound 186] | 7.12 to 8.00 |  | 
COC1(c2ccnc(C(N)=O)c2)C2CCCC1CN(Cc1ccncc1)C2 [Compound 69, 4-((1R,5S,9r)-9-methoxy-3-(pyridin-4-ylmethyl)-3-azabicyclo[3.3.1]nonan-9-yl)picolinamide hydrochloride] |  | < 8.30 | < 7.12
COC1(c2ccnc(C(N)=O)c2)C2CCCC1CN([C@H]1C[C@@H](C)C1)C2 (stereo partly drawn) [Compound 130, 4-((1R,5S,9R)-9-methoxy-3-((1s,3S)-3-methylcyclobutyl)-3-azabicyclo[3.3.1]nonan-9-yl)picolinamide hydrochloride] |  | > 9.00 | 7.12 to 8.00
COC1(c2ccnc(C(N)=O)c2)C2CCCC1CN(C[C@H]1CCCCO1)C2 (stereo partly drawn) [Compound 168] | 7.12 to 8.00 |  | 

Source: patent US10604489B2, “Compounds for the treatment of pain” (priority 2018, dated 2020)
